# Test results as given in patent US12428406B2 (PMV Pharmaceuticals, Inc., priority 2019, dated 2025).
# Target: T1, p53 Y220C (Homo sapiens, UniProt P04637, Y220C)
# T1 construct: The recombinant protein was a truncation mutant containing only amino acids 94-312 of p53; made in house; host or cells: E. coli
# Assay: In vitro DNA binding activity assay (HTRF / TR-FRET): stabilization of p53 Y220C and increase of its DNA binding activity
# Assay type: biochemical
# Conditions: recombinant His-tagged p53 Y220C DNA binding domain (aa 94-312), biotin-labeled consensus DNA, incubated at 27° C. or 29° C. for 60 min
# In short: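 Compound effect on DNA binding of recombinant His-p53 Y220C (E. coli) to biotin-labeled consensus DNA, expressed as SC150, the concentration giving 50% increase versus untreated. Serial 3-fold DMSO dilutions of 4.5 mM stocks; room-temperature steps of 15 then 20 min.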
# T1 sequence (P04637 94-312, change not shown): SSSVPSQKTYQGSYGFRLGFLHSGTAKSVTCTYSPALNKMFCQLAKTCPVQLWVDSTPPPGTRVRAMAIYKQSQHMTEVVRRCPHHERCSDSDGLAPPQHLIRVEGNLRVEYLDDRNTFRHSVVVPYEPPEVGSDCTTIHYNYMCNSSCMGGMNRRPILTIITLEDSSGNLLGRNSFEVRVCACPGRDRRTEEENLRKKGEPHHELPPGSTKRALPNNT
row,SMILES,SC150 (concentration of the compound required to increase the DNA binding activity by 50%)
1,"COc1cc(S(N)(=O)=O)ccc1NCC#Cc1cc2c(NC3CCN(CC(COC(=O)C(C)C)OC(=O)C(C)C)CC3)cccc2n1CC(F)(F)F (stereo not shown) [Compound 589A, 1-{4-[(2-{3-[(2-methoxy-4-sulfamoylphenyl)amino]prop-1-yn-1-yl}-1-(2,2,2-trifluoroethyl)-1H-indol-4-yl)amino]piperidin-1-yl}-3-[(2-methylpropanoyl)oxy]propan-2-yl 2-methylpropanoate]",++ (++ = 0.05 μM ≤ SC150 < 0.1 μM)
2,"COc1cc(S(C)(=O)=O)ccc1NCC#Cc1cc2c(NC3CCN(CC(O)COC(=O)C(C)C)CC3)cccc2n1CC(F)(F)F (stereo not shown) [Compound 592A, 2-hydroxy-3-{4-[(2-{3-[(4-methanesulfonyl-2-methoxyphenyl)amino]prop-1-yn-1-yl}-1-(2,2,2-trifluoroethyl)-1H-indol-4-yl)amino]piperidin-1-yl}propyl 2-methylpropanoate]",+ (+ = 0 μM ≤ SC150 < 0.05 μM)
3,"COCC(CN1CCC(Nc2cccc3c2cc(C#CCNc2ccc(S(C)(=O)=O)cc2OC)n3CC(F)(F)F)CC1)OC(C)=O (stereo not shown) [Compound 593A, 1-{4-[(2-{3-[(4-methanesulfonyl-2-methoxyphenyl)amino]prop-1-yn-1-yl}-1-(2,2,2-trifluoroethyl)-1H-indol-4-yl)amino]piperidin-1-yl}-3-methoxypropan-2-yl acetate]",+ (+ = 0 μM ≤ SC150 < 0.05 μM)
4,CCC(=O)OCC(O)CN1CCC(Nc2cccc3c2cc(C#CCNc2ccc(S(C)(=O)=O)cc2OC)n3CC(F)(F)F)CC1 (stereo not shown) [Compound 594A],+ (+ = 0 μM ≤ SC150 < 0.05 μM)
5,"COc1cc(S(=O)(=O)N(CCO)CCO)ccc1NCC#Cc1cc2c(NC3CCN(CC(C)O)CC3)cccc2n1CC(F)(F)F (stereo not shown) [Compound 595A, N,N-bis(2-hydroxyethyl)-4-{[3-(4-{[1-(2-hydroxypropyl)piperidin-4-yl]amino}-1-(2,2,2-trifluoroethyl)-1H-indol-2-yl)prop-2-yn-1-yl]amino}-3-methoxybenzene-1-sulfonamide]",+ (+ = 0 μM ≤ SC150 < 0.05 μM)
6,"CNC(=O)c1ccc(NCC#Cc2cc3c(NC4CCN(CC(C)O)CC4)cccc3n2CC(F)(F)F)c(OC)c1 (stereo not shown) [Compound 596A, 4-{[3-(4-{[1-(2-hydroxypropyl)piperidin-4-yl]amino}-1-(2,2,2-trifluoroethyl)-1H-indol-2-yl)prop-2-yn-1-yl]amino}-3-methoxy-N-methylbenzamide]",+ (+ = 0 μM ≤ SC150 < 0.05 μM)
7,"COc1cc(S(N)(=O)=O)ccc1NCC#Cc1cc2c(NC3CCN(CC(C)OC(=O)C(C)C)CC3)cccc2n1CC(F)(F)F (stereo not shown) [Compound 598A, 1-{4-[(2-{3-[(2-methoxy-4-sulfamoylphenyl)amino]prop-1-yn-1-yl}-1-(2,2,2-trifluoroethyl)-1H-indol-4-yl)amino]piperidin-1-yl}propan-2-yl 2-methylpropanoate]",+ (+ = 0 μM ≤ SC150 < 0.05 μM)
8,"COc1cc(S(N)(=O)=O)ccc1NCC#Cc1cc2c(NC3CCN(CC(C)OC(C)=O)CC3)cccc2n1CC(F)(F)F (stereo not shown) [Compound 599A, 1-{4-[(2-{3-[(2-methoxy-4-sulfamoylphenyl)amino]prop-1-yn-1-yl}-1-(2,2,2-trifluoroethyl)-1H-indol-4-yl)amino]piperidin-1-yl}propan-2-yl acetate]",+ (+ = 0 μM ≤ SC150 < 0.05 μM)
9,"COc1cc(S(N)(=O)=O)ccc1NCC#Cc1cc2c(NC3CCN(CCOC(=O)C(C)C)CC3)cccc2n1CC(F)(F)F [Compound 600A, 2-{4-[(2-{3-[(2-methoxy-4-sulfamoylphenyl)amino]prop-1-yn-1-yl}-1-(2,2,2-trifluoroethyl)-1H-indol-4-yl)amino]piperidin-1-yl}EtOAc]",+ (+ = 0 μM ≤ SC150 < 0.05 μM)
10,"CNC(=O)c1ccc(NCC#Cc2cc3c(NC4CCN(CC(O)COC)CC4)cccc3n2CC(F)(F)F)c(OC)c1 (stereo not shown) [Compound 601A, 4-{[3-(4-{[1-(2-hydroxy-3-methoxypropyl)piperidin-4-yl]amino}-1-(2,2,2-trifluoroethyl)-1H-indol-2-yl)prop-2-yn-1-yl]amino}-3-methoxy-N-methylbenzamide]",+ (+ = 0 μM ≤ SC150 < 0.05 μM)
11,"CCC(=O)OC(COC)CN1CCC(Nc2cccc3c2cc(C#CCNc2ccc(S(C)(=O)=O)cc2OC)n3CC(F)(F)F)CC1 (stereo not shown) [Compound 602A, 1-{4-[(2-{3-[(4-methanesulfonyl-2-methoxyphenyl)amino]prop-1-yn-1-yl}-1-(2,2,2-trifluoroethyl)-1H-indol-4-yl)amino]piperidin-1-yl}-3-methoxypropan-2-yl propanoate]",+ (+ = 0 μM ≤ SC150 < 0.05 μM)
12,"COCC(CN1CCC(Nc2cccc3c2cc(C#CCNc2ccc(S(C)(=O)=O)cc2OC)n3CC(F)(F)F)CC1)OC(=O)C(C)C (stereo not shown) [Compound 603A, 1-{4-[(2-{3-[(4-methanesulfonyl-2-methoxyphenyl)amino]prop-1-yn-1-yl}-1-(2,2,2-trifluoroethyl)-1H-indol-4-yl)amino]piperidin-1-yl}-3-methoxypropan-2-yl 2-methylpropanoate]",+ (+ = 0 μM ≤ SC150 < 0.05 μM)
13,"COCC(CN1CCC(Nc2cccc3c2cc(C#CCNc2ccc(S(N)(=O)=O)cc2OC)n3CC(F)(F)F)CC1)OC(=O)C(C)C (stereo not shown) [Compound 604A, 1-methoxy-3-{4-[(2-{3-[(2-methoxy-4-sulfamoylphenyl)amino]prop-1-yn-1-yl}-1-(2,2,2-trifluoroethyl)-1H-indol-4-yl)amino]piperidin-1-yl}propan-2-yl 2-methylpropanoate]",+ (+ = 0 μM ≤ SC150 < 0.05 μM)
14,"CCC(=O)OC(C)CN1CCC(Nc2cccc3c2cc(C#CCNc2ccc(S(N)(=O)=O)cc2OC)n3CC(F)(F)F)CC1 (stereo not shown) [Compound 605A, 1-{4-[(2-{3-[(2-methoxy-4-sulfamoylphenyl)amino]prop-1-yn-1-yl}-1-(2,2,2-trifluoroethyl)-1H-indol-4-yl)amino]piperidin-1-yl} propan-2-yl propanoate]",+ (+ = 0 μM ≤ SC150 < 0.05 μM)
15,"COCC(O)CN1CCC(Nc2cccc3c2cc(C#CCNc2ccc(S(=O)(=O)NC(C)=O)cc2OC)n3CC(F)(F)F)CC1 (stereo not shown) [Compound 606A, N-(4-{[3-(4-{[1-(2-hydroxy-3-methoxypropyl)pipcridin-4-yl]amino}-1-(2,2,2-trifluoroethyl)-1H-indol-2-yl)prop-2-yn-1-yl]amino}-3-methoxybenzenesulfonyl) acetamide]",+ (+ = 0 μM ≤ SC150 < 0.05 μM)
16,"CCC(=O)NS(=O)(=O)c1ccc(NCC#Cc2cc3c(NC4CCN(CC(O)COC)CC4)cccc3n2CC(F)(F)F)c(OC)c1 (stereo not shown) [Compound 607A, N-(4-{[3-(4-{[1-(2-hydroxy-3-methoxypropyl)piperidin-4-yl]amino}-1-(2,2,2-trifluoroethyl)-1H-indol-2-yl)prop-2-yn-1-yl]amino}-3-methoxybenzenesulfonyl) propanamide]",+ (+ = 0 μM ≤ SC150 < 0.05 μM)
17,"CCC(=O)OCCN1CCC(Nc2cccc3c2cc(C#CCNc2ccc(S(N)(=O)=O)cc2OC)n3CC(F)(F)F)CC1 [Compound 608A, 2-{4-[(2-{3-[(2-methoxy-4-sulfamoylphenyl)amino]prop-1-yn-1-yl}-1-(2,2,2-trifluoroethyl)-1H-indol-4-yl)amino]piperidin-1-yl}ethyl propanoate]",+ (+ = 0 μM ≤ SC150 < 0.05 μM)
18,CNS(=O)(=O)c1ccc(NCC#Cc2cc3c(NC4CCN(CC(O)COC)CC4)cccc3n2CC(F)(F)F)c(OC)c1 (stereo not shown) [Compound 609A],+ (+ = 0 μM ≤ SC150 < 0.05 μM)
19,"CCC(=O)OC(COC)CN1CCC(Nc2cccc3c2cc(C#CCNc2ccc(S(N)(=O)=O)cc2OC)n3CC(F)(F)F)CC1 (stereo not shown) [Compound 610A, 1-methoxy-3-{4-[(2-{3-[(2-methoxy-4-sulfamoylphenyl)amino]prop-1-yn-1-yl}-1-(2,2,2-trifluoroethyl)-1H-indol-4-yl)amino]piperidin-1-yl} propan-2-yl propanoate]",+ (+ = 0 μM ≤ SC150 < 0.05 μM)
20,"COC[C@H](O)CN1CCC(Nc2cccc3c2cc(C#CCNc2ccc(S(C)(=O)=O)cc2OC)n3CC(F)(F)F)CC1 [Compound 611A, (2R)-1-{4-[(2-{3-[(4-methanesulfonyl-2-methoxyphenyl)amino]prop-1-yn-1-yl}-1-(2,2,2-trifluoroethyl)-1H-indol-4-yl)amino]piperidin-1-yl}-3-methoxypropan-2-ol]",+ (+ = 0 μM ≤ SC150 < 0.05 μM)
21,"COC[C@@H](O)CN1CCC(Nc2cccc3c2cc(C#CCNc2ccc(S(C)(=O)=O)cc2OC)n3CC(F)(F)F)CC1 [Compound 612A, (2S)-1-{4-[(2-{3-[(4-methanesulfonyl-2-methoxyphenyl)amino]prop-1-yn-1-yl}-1-(2,2,2-trifluoroethyl)-1H-indol-4-yl)amino]piperidin-1-yl}-3-methoxypropan-2-ol]",+ (+ = 0 μM ≤ SC150 < 0.05 μM)
22,"COc1cc(C(N)=O)ccc1NCC#Cc1cc2c(N[C@H]3CC[C@@H](N(C)C)CC3)cccc2n1CC(F)(F)F [Compound 613A, 3-methoxy-4-{[3-(4-{[(1S,4S)-4-(dimethylamino)cyclohexyl]amino}-1-(2,2,2-trifluoroethyl)-1H-indol-2-yl)prop-2-yn-1-yl]amino}benzamide]",+ (+ = 0 μM ≤ SC150 < 0.05 μM)
